Measured values published in the supplement of paper PMC10307832.

What was measured:
Assay in all cases: relative viability (nuclei count vs DMSO), 5 days (fraction); higher = more cells survive
Ibrutinib + Luminespib = compound: C=CC(=O)N1CCC[C@@H](n2nc(-c3ccc(Oc4ccccc4)cc3)c3c(N)ncnc32)C1 [Ibrutinib] + CCNC(=O)c1noc(-c2cc(C(C)C)c(O)cc2O)c1-c1ccc(CN2CCOCC2)cc1 [Luminespib] (partner 0.01 µM)
Outline: (§1)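 Dosing by pin tool came one day after lung cancer cell lines were seeded in 1536-well plates, using either one drug or a fixed anchor-drug dose plus five library-drug doses (not always all listed) in √10 steps. After 5 days, nuclei were counted on 4× images. Relative viability is treated-well nuclei count divided by vehicle-well nuclei count, and values are medians of duplicate plates.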

PAC-1 + Phenformin = compound: C=CCc1cccc(/C=N/NC(=O)CN2CCN(Cc3ccccc3)CC2)c1O [PAC-1] + N=C(N)NC(=N)NCCc1ccccc1 [Phenformin] (partner 250 µM)
Outline: as §1

PAC-1 + Trametinib = compound: C=CCc1cccc(/C=N/NC(=O)CN2CCN(Cc3ccccc3)CC2)c1O [PAC-1] + CC(=O)Nc1cccc(-n2c(=O)n(C3CC3)c(=O)c3c(Nc4ccc(I)cc4F)n(C)c(=O)c(C)c32)c1 [Trametinib] (partner 0.02 µM)
Outline: as §1

Ibrutinib + Bortezomib = compound: C=CC(=O)N1CCC[C@@H](n2nc(-c3ccc(Oc4ccccc4)cc3)c3c(N)ncnc32)C1 [Ibrutinib] + CC(C)C[C@H](NC(=O)[C@H](Cc1ccccc1)NC(=O)c1cnccn1)B(O)O [Bortezomib] (partner 0.002 µM)
Outline: as §1

Row | Cell Line | relative viability (Ibrutinib + Luminespib; first compound 0.005 µM) | relative viability (Ibrutinib + Luminespib; first compound 0.01581 µM) | relative viability (Ibrutinib + Luminespib; first compound 0.05 µM) | relative viability (Ibrutinib + Luminespib; first compound 0.1581 µM) | relative viability (Ibrutinib + Luminespib; first compound 0.5 µM) | relative viability (PAC-1 + Phenformin; first compound 0.02 µM) | relative viability (PAC-1 + Phenformin; first compound 0.06325 µM) | relative viability (PAC-1 + Phenformin; first compound 0.2 µM) | relative viability (PAC-1 + Phenformin; first compound 2 µM) | relative viability (PAC-1 + Trametinib; first compound 0.02 µM) | relative viability (PAC-1 + Trametinib; first compound 0.06325 µM) | relative viability (PAC-1 + Trametinib; first compound 0.2 µM) | relative viability (PAC-1 + Trametinib; first compound 2 µM) | relative viability (Ibrutinib + Bortezomib; first compound 0.005 µM) | relative viability (Ibrutinib + Bortezomib; first compound 0.01581 µM) | relative viability (Ibrutinib + Bortezomib; first compound 0.05 µM) | relative viability (Ibrutinib + Bortezomib; first compound 0.1581 µM) | relative viability (Ibrutinib + Bortezomib; first compound 0.5 µM)
1 | LCLC-103H | 1 | 0.905 | 0.896 | 1.09 | 0.897 | 0.347 | 0.322 | 0.365 | 0.341 | 0.636 | 0.697 | 0.708 | 0.714 | 0.999 | 1.01 | 1.07 | 0.986 | 1.05
2 | LOU-NH91 | 0.333 | 0.346 | 0.267 | 0.294 | 0.309 | 0.713 | 0.695 | 0.668 | 0.798 | 0.776 | 0.776 | 0.782 | 0.817 | 0.509 | 0.553 | 0.513 | 0.476 | 0.478
3 | LU99A | 0.191 | 0.24 | 0.285 | 0.249 | 0.248 | 0.824 | 0.761 | 0.908 | 0.874 | 0.542 | 0.475 | 0.539 | 0.564 | 1.01 | 0.97 | 1.28 | 1.21 | 1.2
4 | LXF-289 | 0.685 | 0.673 | 0.722 | 0.692 | 0.643 | 0.52 | 0.53 | 0.501 | 0.511 | 0.7 | 0.718 | 0.705 | 0.675 | 1.09 | 0.985 | 0.966 | 0.959 | 0.914
5 | NCI-H23 | – | 0.22 | – | – | 0.248 | 0.788 | 0.814 | 0.713 | 0.815 | 0.308 | 0.388 | 0.336 | 0.442 | 0.839 | 1.02 | 0.938 | 1.07 | 1.13
6 | NCI-H322M | 0.648 | 0.726 | 0.785 | 0.752 | 0.473 | 0.716 | 0.819 | 0.776 | 0.762 | 0.498 | 0.575 | 0.542 | 0.503 | 1.09 | 1.22 | 1.25 | 1.24 | 1.07
7 | NCI-H441 | 0.362 | 0.359 | 0.266 | 0.36 | 0.235 | 0.881 | 0.993 | 0.705 | 0.752 | 0.408 | 0.629 | 0.482 | 0.411 | 0.518 | 0.498 | 0.45 | 0.575 | 0.479
8 | NCI-H460 | 0.0343 | 0.0329 | 0.0328 | 0.0586 | 0.0349 | 0.503 | 0.528 | 0.483 | 0.575 | 0.136 | 0.156 | 0.204 | 0.286 | 1.27 | 1.02 | 1.19 | 1.19 | 1.27
9 | NCI-H520 | 0.252 | 0.237 | 0.247 | 0.232 | 0.269 | 0.418 | 0.685 | 0.462 | 0.6 | 0.747 | 0.746 | 0.64 | 0.797 | 0.567 | 0.45 | 0.553 | 0.662 | 0.338
10 | NCI-H596 | – | 0.894 | 0.77 | 0.959 | 0.805 | 0.739 | 1.03 | 0.783 | 0.785 | 0.704 | 0.802 | 0.801 | 0.87 | 1.21 | 0.457 | – | 0.834 | 0.92
11 | NCI-H647 | – | 0.14 | 0.239 | 0.181 | 0.196 | 0.609 | 0.504 | 0.431 | 0.571 | 0.456 | 0.535 | 0.446 | 0.399 | 0.823 | 0.86 | 0.991 | 1.04 | 1.02
12 | NCI-H650 | 0.775 | 0.757 | 0.737 | 0.885 | 0.949 | 0.469 | 0.452 | 0.403 | 0.444 | 0.871 | 1.02 | 0.933 | 1.27 | – | 0.706 | – | 1.12 | 0.932
13 | NCI-H661 | 1 | 0.835 | 0.772 | 0.934 | 0.653 | 0.255 | 0.299 | 0.278 | 0.29 | 0.585 | 0.591 | 0.581 | 0.585 | 0.833 | 0.748 | 0.652 | 0.838 | 0.611
14 | NCI-H727 | – | 0.597 | 0.282 | – | 0.516 | 0.463 | 0.682 | 0.565 | 0.52 | 0.348 | 0.394 | 0.414 | 0.414 | 0.628 | 0.796 | 0.981 | 0.623 | 0.785
15 | NCI-H838 | 0.288 | – | 0.266 | 0.326 | 0.325 | 0.509 | 0.585 | 0.46 | 0.572 | 0.46 | 0.509 | 0.459 | 0.528 | 0.781 | 0.729 | 0.687 | 0.741 | 0.673
16 | NCI-H1355 | 0.55 | 0.648 | 0.715 | 0.858 | 0.517 | 0.461 | 0.517 | 0.431 | 0.438 | 0.464 | 0.467 | 0.416 | 0.419 | – | 1.14 | 1.18 | 1.2 | 1.16
17 | NCI-H1437 | 1.13 | 1.16 | 1.11 | 1.14 | 1.12 | 0.302 | 0.275 | 0.264 | 0.339 | 0.555 | 0.511 | 0.494 | 0.525 | 0.647 | 0.476 | 0.449 | 0.482 | 0.603
18 | NCI-H1650 | 0.211 | 0.196 | 0.192 | 0.194 | 0.209 | 0.427 | 0.478 | 0.411 | 0.42 | 0.538 | 0.54 | 0.335 | 0.542 | 0.22 | 0.216 | 0.23 | 0.203 | 0.22
